Broadly, the Ki is a dissociation constant, usually derived from enzyme kinetics or from competition with a known ligand. Low readings indicate a stronger hold on the target, high ones a looser hold on the target.

One test concerns the target Rho kinase 1 (ROCK-I) (Homo sapiens, UniProt Q13464). Briefly: In vitro Rho kinase inhibitory activity assay (ADP-Glo), Rho kinase 1. It is filed as biochemical. To be noted: 10 μM ATP, 25° C., expressed as range of activity. In outline:
(§1)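 First, compound was incubated with either Rho kinase isoform for 30 mins at 25 °C; next, ATP was added to 10 μM final with 2.5 μM Myelin Basic Protein substrate; after 1 hour, ADP formed was detected by ADP-Glo luminescence. Dose-response data yielded IC50, converted to Ki using Cheng-Prusoff.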

For a further test, the target named is Rho kinase 2 (ROCK-II) (Homo sapiens, UniProt O75116). Put plainly: In vitro Rho kinase inhibitory activity assay (ADP-Glo), Rho kinase 2. It is filed as biochemical. To be noted: 10 μM ATP, 25° C., expressed as range of activity. In outline: as §1
Rho kinase 2 (ROCK-II), sequence (O75116 whole entry): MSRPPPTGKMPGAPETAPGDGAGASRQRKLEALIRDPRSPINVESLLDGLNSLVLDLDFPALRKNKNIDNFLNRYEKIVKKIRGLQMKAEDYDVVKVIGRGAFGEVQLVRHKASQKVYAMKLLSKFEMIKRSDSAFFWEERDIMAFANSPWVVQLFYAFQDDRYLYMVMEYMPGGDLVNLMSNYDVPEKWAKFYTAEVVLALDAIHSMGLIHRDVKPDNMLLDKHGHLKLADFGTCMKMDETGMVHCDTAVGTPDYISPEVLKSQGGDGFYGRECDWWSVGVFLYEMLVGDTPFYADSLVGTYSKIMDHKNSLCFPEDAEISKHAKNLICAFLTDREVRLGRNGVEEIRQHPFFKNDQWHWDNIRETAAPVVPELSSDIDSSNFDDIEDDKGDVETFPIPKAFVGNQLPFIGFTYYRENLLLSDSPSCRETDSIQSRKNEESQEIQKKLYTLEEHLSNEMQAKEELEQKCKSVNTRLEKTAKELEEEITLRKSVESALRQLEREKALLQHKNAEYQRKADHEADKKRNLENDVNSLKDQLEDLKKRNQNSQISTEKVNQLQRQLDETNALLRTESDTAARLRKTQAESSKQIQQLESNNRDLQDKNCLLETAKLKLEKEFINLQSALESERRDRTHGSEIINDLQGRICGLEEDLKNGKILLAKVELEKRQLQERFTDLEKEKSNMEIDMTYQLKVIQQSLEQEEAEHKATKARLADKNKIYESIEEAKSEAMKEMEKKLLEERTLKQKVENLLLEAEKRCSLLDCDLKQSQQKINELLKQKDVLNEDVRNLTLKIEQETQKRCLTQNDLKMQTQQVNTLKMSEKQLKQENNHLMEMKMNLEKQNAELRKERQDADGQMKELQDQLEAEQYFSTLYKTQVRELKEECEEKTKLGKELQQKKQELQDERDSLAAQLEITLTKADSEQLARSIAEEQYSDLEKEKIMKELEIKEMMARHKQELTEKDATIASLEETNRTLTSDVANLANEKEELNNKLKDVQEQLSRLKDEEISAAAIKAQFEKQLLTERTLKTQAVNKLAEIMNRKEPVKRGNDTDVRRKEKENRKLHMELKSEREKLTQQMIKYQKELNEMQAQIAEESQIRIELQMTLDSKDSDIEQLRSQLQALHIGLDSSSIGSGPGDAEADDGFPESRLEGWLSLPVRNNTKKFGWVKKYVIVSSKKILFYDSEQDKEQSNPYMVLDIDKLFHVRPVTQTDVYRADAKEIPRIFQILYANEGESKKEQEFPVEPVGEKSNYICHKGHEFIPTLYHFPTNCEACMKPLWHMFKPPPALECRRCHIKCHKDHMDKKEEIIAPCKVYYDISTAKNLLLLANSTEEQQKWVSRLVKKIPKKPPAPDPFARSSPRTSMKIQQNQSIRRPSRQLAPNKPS
A general note: ADP-Glo turns the ADP formed in a reaction into a luminescent signal.

SMILES strings stand for the structures.

Rho kinase 1 (ROCK-I), sequence (Q13464 whole entry, canonical isoform): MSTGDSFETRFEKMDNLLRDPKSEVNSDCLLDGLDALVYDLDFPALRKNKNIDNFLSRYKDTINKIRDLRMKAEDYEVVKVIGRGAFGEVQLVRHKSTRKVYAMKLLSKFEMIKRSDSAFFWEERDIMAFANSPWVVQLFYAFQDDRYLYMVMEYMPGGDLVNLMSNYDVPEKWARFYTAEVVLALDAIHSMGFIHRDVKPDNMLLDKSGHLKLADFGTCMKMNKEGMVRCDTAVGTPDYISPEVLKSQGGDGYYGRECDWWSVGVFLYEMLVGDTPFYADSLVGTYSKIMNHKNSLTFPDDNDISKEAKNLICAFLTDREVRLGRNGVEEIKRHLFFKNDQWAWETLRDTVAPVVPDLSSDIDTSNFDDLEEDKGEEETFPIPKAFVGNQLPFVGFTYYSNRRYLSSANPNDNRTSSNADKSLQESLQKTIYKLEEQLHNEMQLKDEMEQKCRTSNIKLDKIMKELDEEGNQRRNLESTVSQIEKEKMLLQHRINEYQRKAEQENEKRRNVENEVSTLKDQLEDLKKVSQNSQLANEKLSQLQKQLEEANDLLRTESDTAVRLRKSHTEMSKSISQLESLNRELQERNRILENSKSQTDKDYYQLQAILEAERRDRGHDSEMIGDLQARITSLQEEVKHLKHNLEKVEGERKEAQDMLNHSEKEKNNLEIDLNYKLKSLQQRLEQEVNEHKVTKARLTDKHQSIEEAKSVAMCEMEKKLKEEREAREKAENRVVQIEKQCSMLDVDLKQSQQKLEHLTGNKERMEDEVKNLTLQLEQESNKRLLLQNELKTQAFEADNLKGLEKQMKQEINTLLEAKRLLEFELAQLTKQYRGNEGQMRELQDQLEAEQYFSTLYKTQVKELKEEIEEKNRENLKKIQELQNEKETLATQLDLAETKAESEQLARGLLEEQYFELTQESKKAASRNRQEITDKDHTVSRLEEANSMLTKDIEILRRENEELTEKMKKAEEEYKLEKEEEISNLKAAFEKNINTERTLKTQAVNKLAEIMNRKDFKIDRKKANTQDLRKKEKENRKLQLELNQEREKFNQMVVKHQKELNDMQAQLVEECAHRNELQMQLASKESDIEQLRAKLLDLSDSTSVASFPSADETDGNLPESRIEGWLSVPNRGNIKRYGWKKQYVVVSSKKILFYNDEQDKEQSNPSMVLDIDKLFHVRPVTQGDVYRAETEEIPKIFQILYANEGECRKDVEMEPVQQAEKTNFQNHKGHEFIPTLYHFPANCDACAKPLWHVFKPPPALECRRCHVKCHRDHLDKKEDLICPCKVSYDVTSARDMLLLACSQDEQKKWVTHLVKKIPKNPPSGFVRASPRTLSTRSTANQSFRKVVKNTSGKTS

For the compound `N[C@@H](Cc1ccc(Oc2ccnc3[nH]cc(C4=CCOC4)c23)cc1)C(=O)N1CCN(Cc2ccccc2)CC1` [Example 201, (S)-2-amino-1-(4-benzylpiperazin-1-yl)-3-(4-((3-(2,5-dihydrofuran-3-yl)-1H-pyrrolo[2,3-b]pyridin-4-yl)oxy)phenyl)propan-1-one], the Ki on Rho kinase 1 (ROCK-I) and at Rho kinase 2 (ROCK-II) was < 3 nM in each case.
Take `Cc1c[nH]c2nccc(Oc3ccc(C[C@H](N)C(=O)N4CCN(C(=O)c5cn(C)cn5)CC4)cc3F)c12` [Example 176, (S)-2-amino-3-(3-fluoro-4-((3-methyl-1H-pyrrolo[2,3-b]pyridin-4-yl)oxy)phenyl)-1-(4-(1-methyl-1H-imidazole-4-carbonyl)piperazin-1-yl)propan-1-one]: the Ki at Rho kinase 1 (ROCK-I) is 3 to 30 nM; on Rho kinase 2 (ROCK-II), < 3 nM.
In the case of `Cc1c[nH]c2nccc(Oc3ccc(C[C@H](N)C(=O)N4C[C@H]5CN(C)C[C@H]5C4)cc3F)c12` [Example 30, (S)-2-amino-3-(3-fluoro-4-((3-methyl-1H-pyrrolo[2,3-b]pyridin-4-yl)oxy)phenyl)-1-((3aR,6aS)-5-methylhexahydropyrrolo[3,4-c]pyrrol-2(1H)-yl)propan-1-one], the Ki at Rho kinase 1 (ROCK-I) and on Rho kinase 2 (ROCK-II) was < 3 nM throughout.
Take `Cc1c[nH]c2nccc(Oc3ccc(CC(N)C(=O)NCCc4ccccn4)cc3F)c12` (stereo not shown) [Example 69, 2-amino-3-(3-fluoro-4-((3-methyl-1H-pyrrolo[2,3-b]pyridin-4-yl)oxy)phenyl)-N-(2-(pyridin-2-yl)ethyl)propanamide]: the Ki on Rho kinase 1 (ROCK-I) and on Rho kinase 2 (ROCK-II) was < 3 nM each time.
Regarding `Cc1c[nH]c2nccc(Oc3ccc(CC(N)C(=O)NCCc4ccncc4)cc3F)c12` (single isomer, unassigned) [Example 57B, 2-amino-3-(3-fluoro-4-((3-methyl-1H-pyrrolo[2,3-b]pyridin-4-yl)oxy)phenyl)-N-(2-(pyridin-4-yl)ethyl)propanamide], the Ki at Rho kinase 1 (ROCK-I) and at Rho kinase 2 (ROCK-II) was < 3 nM in each case.
For the compound `O=C(NC(Cc1ccc(Oc2ccnc3[nH]ccc23)cc1)C(=O)NC1CCCCC1)C1CCNC1` (stereo not shown) [Example 180, N-(3-(4-((1H-pyrrolo[2,3-b]pyridin-4-yl)oxy)phenyl)-1-(cyclohexylamino)-1-oxopropan-2-yl)pyrrolidine-3-carboxamide], the Ki on Rho kinase 1 (ROCK-I) and on Rho kinase 2 (ROCK-II) was 3 to 30 nM each time.
In the case of `Cc1c[nH]c2ncnc(Oc3ccc(C[C@H](N)C(=O)N4CCC(Oc5cccnc5)CC4)cc3F)c12` [Example 126, (S)-2-amino-3-(3-fluoro-4-((5-methyl-7H-pyrrolo[2,3-d]pyrimidin-4-yl)oxy)phenyl)-1-(4-(pyridin-3-yloxy)piperidin-1-yl)propan-1-one], the Ki at Rho kinase 1 (ROCK-I) and at Rho kinase 2 (ROCK-II) was 3 to 30 nM each time.
As to `Cc1cccc(CN2CCN(C(=O)C(N)Cc3ccc(Oc4ccnc5[nH]cc(C)c45)c(F)c3)CC2)c1` (stereo not shown) [Example 73, 2-amino-3-(3-fluoro-4-((3-methyl-1H-pyrrolo[2,3-b]pyridin-4-yl)oxy)phenyl)-1-(4-(3-methylbenzyl)piperazin-1-yl)propan-1-one], the Ki at Rho kinase 1 (ROCK-I) and on Rho kinase 2 (ROCK-II) was < 3 nM each time.
As for `N[C@@H](Cc1ccc(Oc2ccnc3[nH]cc(CCO)c23)cc1)C(=O)N1CCN(Cc2ccccc2)CC1` [Example 216, (S)-2-amino-1-(4-benzylpiperazin-1-yl)-3-(4-((3-(2-hydroxyethyl)-1H-pyrrolo[2,3-b]pyridin-4-yl)oxy)phenyl)propan-1-one], the Ki on Rho kinase 1 (ROCK-I) and on Rho kinase 2 (ROCK-II) was < 3 nM in each case.
As to `Cc1c[nH]c2nccc(Oc3ccc(C[C@@H](C(=O)NC4CCCCC4)N(C)C)cc3)c12` [Example 184, (S)—N-cyclohexyl-2-(dimethylamino)-3-(4-((3-methyl-1H-pyrrolo[2,3-b]pyridin-4-yl)oxy)phenyl)propanamide], the Ki at Rho kinase 1 (ROCK-I) and on Rho kinase 2 (ROCK-II) was < 3 nM in each case.
In the case of `CN1C[C@@H]2C[C@H]1CN2C(=O)[C@@H](N)Cc1ccc(Oc2ccnc3[nH]cc(CO)c23)c(F)c1` [Example 211, (S)-2-amino-3-(3-fluoro-4-((3-(hydroxymethyl)-1H-pyrrolo[2,3-b]pyridin-4-yl)oxy)phenyl)-1-((1S,4S)-5-methyl-2,5-diazabicyclo[2.2.1]-heptan-2-yl)propan-1-one], the Ki on Rho kinase 1 (ROCK-I) and at Rho kinase 2 (ROCK-II) was 3 to 30 nM each time.
Turning to `CSc1nccc(CN2CCN(C(=O)[C@@H](N)Cc3ccc(Oc4ccnc5[nH]cc(C)c45)c(F)c3)CC2)n1` [Example 154, (S)-2-amino-3-(3-fluoro-4-((3-methyl-1H-pyrrolo[2,3-b]pyridin-4-yl)oxy)phenyl)-1-(4-((2-(methylthio)pyrimidin-4-yl)methyl)piperazin-1-yl)propan-1-one], the Ki on Rho kinase 1 (ROCK-I) and on Rho kinase 2 (ROCK-II) was < 3 nM in each case.
Consider `CN(C)C(=O)C(N)Cc1ccc(Oc2ccnc3[nH]ccc23)cc1` (stereo not shown) [Example 113, 3-(4-((1H-pyrrolo[2,3-b]pyridin-4-yl)oxy)phenyl)-2-amino-N,N-dimethylpropanamide], for which the results for the inhibition constant Ki on Rho kinase 1 (ROCK-I) and on Rho kinase 2 (ROCK-II) were > 30 nM and 3 to 30 nM, respectively.
Turning to `Cc1c[nH]c2nccc(Oc3ccc(C[C@H](N)C(=O)NC4(C#N)CCCCC4)cc3F)c12` [Example 34, (S)-2-amino-N-(1-cyanocyclohexyl)-3-(3-fluoro-4-((3-methyl-1H-pyrrolo[2,3-b]pyridin-4-yl)oxy)phenyl)propanamide], the Ki at Rho kinase 1 (ROCK-I) and at Rho kinase 2 (ROCK-II) was < 3 nM each time.
`Cc1c[nH]c2nccc(Oc3ccc(C[C@H](N)C(=O)N4CCN(C)C(c5ccccc5)C4)cc3F)c12` (mixture of isomers) [Example 6, (2S)-2-amino-3-(3-fluoro-4-((3-methyl-1H-pyrrolo[2,3-b]pyridin-4-yl)oxy)phenyl)-1-(4-methyl-3-phenylpiperazin-1-yl)propan-1-one]: the inhibition constant Ki at Rho kinase 1 (ROCK-I) and at Rho kinase 2 (ROCK-II) was < 3 nM each time.
`Cc1c[nH]c2nccc(Oc3ccc(CC(N)C(=O)N4CCN(C)CC4)cc3F)c12` (stereo not shown) [Example 59, 2-amino-3-(3-fluoro-4-((3-methyl-1H-pyrrolo[2,3-b]pyridin-4-yl)oxy)phenyl)-1-(4-methylpiperazin-1-yl)propan-1-one]: the Ki at Rho kinase 1 (ROCK-I) and at Rho kinase 2 (ROCK-II) was < 3 nM each time.
Take `Cc1c[nH]c2nccc(Oc3ccc(C[C@H](N)C(=O)N4CCN(C(=O)c5cnn(C)c5)CC4)cc3F)c12` [Example 175, (S)-2-amino-3-(3-fluoro-4-((3-methyl-1H-pyrrolo[2,3-b]pyridin-4-yl)oxy)phenyl)-1-(4-(1-methyl-1H-pyrazole-4-carbonyl)piperazin-1-yl)propan-1-one]: the Ki on Rho kinase 1 (ROCK-I) and on Rho kinase 2 (ROCK-II) was < 3 nM throughout.
On to `Cc1c[nH]c2nccc(Oc3ccc(C[C@@H](N)C(=O)NC4CCCCC4)cc3F)c12` [Example 148, (R)-2-amino-N-cyclohexyl-3-(3-fluoro-4-((3-methyl-1H-pyrrolo[2,3-b]pyridin-4-yl)oxy)phenyl)propanamide], for which the Ki at Rho kinase 1 (ROCK-I) and at Rho kinase 2 (ROCK-II) was < 3 nM throughout.
As to `Cc1c[nH]c2nccc(Oc3ccc(CC(N)C(=O)Nc4ccncc4)cc3F)c12` (stereo not shown) [Example 71, 2-amino-3-(3-fluoro-4-((3-methyl-1H-pyrrolo[2,3-b]pyridin-4-yl)oxy)phenyl)-N-(pyridin-4-yl)propanamide], the Ki on Rho kinase 1 (ROCK-I) and at Rho kinase 2 (ROCK-II) was < 3 nM in each case.
For the compound `Cc1c[nH]c2ncnc(Oc3ccc(C[C@H](N)C(=O)NCCc4ccncc4)cc3F)c12` [Example 128, (S)-2-amino-3-(3-fluoro-4-((5-methyl-7H-pyrrolo[2,3-d]pyrimidin-4-yl)oxy)phenyl)-N-(2-(pyridin-4-yl)ethyl)propanamide], the Ki at Rho kinase 1 (ROCK-I) and at Rho kinase 2 (ROCK-II) was < 3 nM throughout.
As for `Cc1c[nH]c2nccc(Oc3ccc(C[C@H](N)C(=O)NC4(CO)CCCCC4)cc3F)c12` [Example 32, (S)-2-amino-3-(3-fluoro-4-((3-methyl-1H-pyrrolo[2,3-b]pyridin-4-yl)oxy)phenyl)-N-(1-(hydroxymethyl)cyclohexyl)propanamide], the Ki at Rho kinase 1 (ROCK-I) and on Rho kinase 2 (ROCK-II) was < 3 nM throughout.
For `N[C@H](Cc1ccc(Oc2ccnc3[nH]ccc23)cc1)C(=O)Nc1ccccc1` [Example 110, (R)-3-(4-((1H-pyrrolo[2,3-b]pyridin-4-yl)oxy)phenyl)-2-amino-N-phenylpropanamide], the figures for the Ki on Rho kinase 1 (ROCK-I) and at Rho kinase 2 (ROCK-II) were > 30 nM and 3 to 30 nM, respectively.
On the same counts, the results for `Cc1c[nH]c2nccc(Oc3ccc(C[C@H](N)C(=O)N4CCC(Cc5ccccc5)CC4)cc3F)c12` [Example 13, (S)-2-amino-1-(4-benzylpiperidin-1-yl)-3-(3-fluoro-4-((3-methyl-1H-pyrrolo[2,3-b]pyridin-4-yl)oxy)phenyl)propan-1-one] are < 3 nM and < 3 nM.
For `CN1CCC(NC(=O)[C@@H](N)Cc2ccc(Oc3ccnc4[nH]cc(C#N)c34)c(F)c2)CC1` [Example 222, (S)-2-amino-3-(4-((3-cyano-1H-pyrrolo[2,3-b]pyridin-4-yl)oxy)-3-fluorophenyl)-N-(1-methylpiperidin-4-yl)propanamide], in that order: < 3 nM and < 3 nM.
As to `Cc1c[nH]c2nccc(Oc3ccc(C[C@H](N)C(=O)N4CCN(Cc5ccccc5)CC4)cc3)c12` [Example 88, (S)-2-amino-1-(4-benzylpiperazin-1-yl)-3-(4-((3-methyl-1H-pyrrolo[2,3-b]pyridin-4-yl)oxy)phenyl)propan-1-one], the Ki on Rho kinase 1 (ROCK-I) and at Rho kinase 2 (ROCK-II) was < 3 nM each time.
For the compound `COc1ccc(CN2CCN(C(=O)C(N)Cc3ccc(Oc4ccnc5[nH]cc(C)c45)c(F)c3)CC2)cc1` (stereo not shown) [Example 75, 2-amino-3-(3-fluoro-4-((3-methyl-1H-pyrrolo[2,3-b]pyridin-4-yl)oxy)phenyl)-1-(4-(4-methoxybenzyl)piperazin-1-yl)propan-1-one], the Ki at Rho kinase 1 (ROCK-I) and at Rho kinase 2 (ROCK-II) was < 3 nM each time.
